Reference: article PMC10638401, “Mannich-type modifications of (−)-cannabidiol and (−)-cannabigerol leading to new, bioactive derivatives” (Scientific Reports, 2023)
Converted amounts (≈) assume the structure as drawn. Read-outs that look alike come from different tables or passages of the source.

Assays:
Vero E6 cells = conditions: uninfected Vero E6 cells, three days, XTT
[1] = system: Enterococcus faecalis 51299 VanB; assay: MIC, broth micro dilution
[2] = system: MSSA (Methicillin Sensitive Staphylococcus aureus); assay: MIC, broth micro dilution
SARS-CoV-2 [3] = assay: SARS-CoV-2 immunofluorescence assay (nucleoprotein expression) in Vero E6 cells; format: cell-based; conditions: three days
Protocol: (§1) CBD and CBG derivatives were further tested for their ability to inhibit SARS-CoV-2 replication in Vero E6 cells. Initially, the inhibition of virus-induced cytopathic effect was measured by addition of twofold serial dilutions of each derivative to the cells, followed by the infection with SARS-CoV-2 and determination of the cell viability 3 days post-infection by XTT assay. Concurrently, the cytotoxicity of each compound was assessed from identical dilutions in uninfected Vero E6 cells. To confirm anti-SARS-CoV-2 activity in the CPE inhibition assay, selected compounds were tested in immunofluorescence assay, where inhibition of SARS-CoV-2 replication was monitored as reduction in nucleoprotein expression using fluorescence microscope. […] Among the CBG derivatives, we can find quite cytotoxic and non-cytotoxic derivatives as well.
(§2) For CPE-based assay, two-fold fold serial dilutions of compounds from 100 µM were added in triplicate in a 384-well plate with 5000 Vero E6 cells in DMEM medium with 2% FBS, 100 U of penicillin/ml and 100 µg of streptomycin/ml (all Merck). After 1 h incubation SARS-CoV-2 (strain hCoV-19/Czech Republic/NRL_6632_2/2020) was added at multiplicity of infection […]. Following three days incubation at 37 °C in 5% CO2 the cell viability was determined by addition of XTT solution (Sigma-Aldrich) for 4 h and the absorbance was measured using EnVision plate reader (Perkin Elmer). Drug concentrations required to reduce viral cytopathic effect by 50% (EC50) were calculated using nonlinear regression from plots of percentage cell viability versus log10 drug concentration using GraphPad Prism (version 9.0.0, GraphPad Software, LLC). For immunofluorescence assay, two-fold fold serial dilutions of compounds from 100 µM were added in triplicate in 96-well plate with 15,000 Vero E6 cells plated day before in the same medium as above. After 1 h incubation, SARS-CoV-2 was added at multiplicity of infection 0.05 IU/cell. After three days of incubation, cells were fixed with 4% paraformaldehyde, permeabilized with 0.2% Triton X100 (both Merck), washed, incubated with anti-SARS-CoV-2antibody (mouse monoclonal antibody detecting SARS-CoV-2 nucleoprotein) for 2 h at room temperature. Followed by 1.5 h incubation with Cy3-labeled donkey anti-mouse IgG (Jackson ImmunoResearch Europe) and documented using fluorescence microscope with camera (Olympus). Images were processed in ImageJ software (NIH) and compound concentrations required to reduce fluorescence by 50% (EC50s) were calculated from plots of percentage of fluorescent cells versus log10 drug concentration using nonlinear regression analysis as above. Cytotoxicity was evaluated by incubating with the same two-fold serial dilutions of each compound as above with Vero E6 cells in 384-well plate.

[4] = system: MRSA (Methicillin Resistant Staphylococcus aureus); assay: MIC, broth micro dilution
[5] = system: Staphylococcus epidermidis mecA; assay: MIC, broth micro dilution
Protocol: (§6) According to CLSI guideline the Minimal Inhibitory Concentrations (MICs) of the prepared compounds were determined with the broth micro dilution method. After an overnight growth on 5% bovine blood agar plates at 35 °C bacterial strains were suspended in physiological saline in order to reach the density of 0.5 McFarland for inoculation. Stock solutions containing different concentrations of the substances were prepared in DMSO and H2O (1:1). These were twofold serially diluted from 256 to 0.5 mg/l in Mueller–Hinton broth, and 100 ml of each dilution was inoculated with 10 ml of each bacterial suspension.

[6] = system: Staphylococcus epidermidis biofilm forming; assay: MIC, broth micro dilution
Protocol: as §6

[7] = system: Enterococcus faecalis 15 376 VanA; assay: MIC, broth micro dilution
Protocol: as §6

[8] = system: Enterococcus faecalis 29 212; assay: MIC, broth micro dilution
Protocol: as §6

Bacillus subtilis = assay: MIC, broth micro dilution
Protocol: as §6

SARS-CoV-2 [9] = assay: SARS-CoV-2 cytopathic effect (CPE) inhibition assay in Vero E6 cells (XTT); format: cell-based; conditions: for EC50: Vero E6 cells, 3 days post-infection, XTT
Protocol: as §1, §2

MCF7 cells = assay: Antiproliferative MTT assay, 72 h; format: cell-based, human; conditions: for antiproliferative activity (in words): MCF7, 10 and 30 μM
Description: (§3) Human adherent cancer cell lines A2780, MDA-MB-231 and MCF-7 were obtained from ECACC (European Collection of Cell Cultures, Salisbury, UK; Cat. No.93112519, 92020424, 86012803, respectively). SiHa cell line was obtained from ATCC (American Tissue Culture Collection, Manassas, Virginia, USA; Cat. No. HTB-35). All cell lines used for antiproliferative assay were maintained in Eagle's Minimum Essential Medium (EMEM) completed with 10% fetal bovine serum (FBS), 1% non-essential amino acid solution, and 1% penicillin, streptomycin, and amphotericin B mixture under cell culture conditions described before. All the utilized media and supplements were purchased from Lonza Group Ltd. (Basel, Switzerland).
(§4) The antiproliferative actions of the prepared molecules were determined by the same assay against a panel of adherent human cancer cell lines containing cervical (SiHa), ovarian (A2780) and breast (MCF7, MDA-MB-231) cell lines. Cells were plated onto 96-well microplates (5000 cells/well) and after an overnight incubation treated with two concentrations (10 or 30 μM) of the test substances for 72 h under cell culture conditions. Subsequently, MTT (5 mg/ml in phosphate buffer) was added to the wells, followed by incubation for 4 h. The supernatant was removed, the formazan crystals were then dissolved in 100 µl DMSO. Finally, absorbance values were determined by a microplate reader (BMG Labtech, Ortenberg, Germany) at 545 nm. Two independent measurements were performed with five parallel wells. Results were expressed as percentage of cell proliferation inhibition compared to non-treated control samples regarded as 0%.

MDA-MB-231 cells = assay: Antiproliferative MTT assay, 72 h; format: cell-based, human; conditions: MDA-MB-231, 10 and 30 μM
Description: as §3, §4

SiHa cells = assay: Antiproliferative MTT assay, 72 h; format: cell-based, human; conditions: 10 and 30 μM
Description: as §3, §4

A2780 cells = assay: Antiproliferative MTT assay, 72 h; format: cell-based, human; conditions: A2780, 10 and 30 μM
Description: as §3, §4

SZ95 sebocytes [10] = assay: Nile Red-assay, spontaneous sebaceous lipogenesis; format: cell-based, human; conditions: applied alone, 48 h
SZ95 sebocytes [11] = assay: Viability MTT-assay on sebocytes, 48 h; format: cell-based, human; conditions: 30 μM
Protocol: (§5) Human immortalized SZ95 sebocytes, originated from human facial sebaceous glands[50] were provided by prof. Christos C. Zouboulis, and were cultured in Sebomed® Basal Medium (Cat. No. F8205; Sigma-Aldrich) supplemented with 10% FBS (Gibco-Thermo Fisher Scientific), 1 mM CaCl2 (Cat. No. C7902; Sigma-Aldrich), 5 ng/ml human epidermal growth factor (Cat. No. E9644; Sigma-Aldrich), and MycoZap™ Plus-CL (1:500; Lonza). The medium was changed every other day, and cells were subcultured at 60–70% confluence.
The viability of HaCaT keratinocytes and SZ95 sebocytes was determined by MTT-assay[58] (Cat. No. M5655; Sigma-Aldrich) measuring the conversion of the tetrazolium salt to formazan by mitochondrial dehydrogenases. Cells were plated in 96-well plates (20,000 cells/well), and were treated as indicated. Cells were then incubated with 0.5 mg/ml MTT reagent for 3 h, and concentration of formazan crystals (as an indicator of number of viable cells) was determined colorimetrically at 565 nm by using FlexStation 3 multi-mode microplate reader (Molecular Devices). Results were expressed as percentage of vehicle-treated control regarded as 100%.

SZ95 sebocytes [12] = assay: Nile Red-assay, arachidonic acid-induced lipogenesis; format: cell-based, human; conditions: 50 μM arachidonic acid, 48 h
Protocol: as §5
For quantitative measurement of sebaceous (neutral) lipid content, SZ95 sebocytes (20,000 cells/well) were cultured in 96-well “black well/clear bottom” plates (Cat. No. 655090; Greiner Bio-One, Frickenhausen, Germany), and were treated with compounds in the presence or absence of arachidonic acid (AA; Cat. No. 90010; Cayman Chemical Company, Ann Arbor, MI, USA) or its vehicle (absolute ethanol) as indicated. Subsequently, supernatants were discarded, cells were washed twice with phosphate-buffered saline (PBS; 115 mM NaCl, 20 mM Na2HPO4, pH 7.4; all from Sigma-Aldrich), and 100 µl of a 1 µg/ml Nile Red (Cat. No. N3013; Sigma-Aldrich) solution in PBS was added to each well. The plates were then incubated at 37 °C for 30 min, and fluorescence was measured on FlexStation 3 multimode microplate reader (Molecular Devices, San Francisco, CA, USA). Results, measured in relative fluorescence units, are expressed as percentage of the vehicle (absolute ethanol; Cat. No. 20821.296; VWR International)-treated control regarded as 100%, using 485 nm excitation and 565 nm emission wavelengths.

in vitro = conditions: African green monkey
[13] = Enterococcus faecalis 51299 VanB
[14] = Staphylococcus epidermidis mecA
[15] = Staphylococcus epidermidis biofilm forming
[16] = Enterococcus faecalis 15 376 VanA
[17] = Severe acute respiratory syndrome coronavirus 2, Vero C1008, 72 h

Row | SMILES | CC50 (Vero E6 cells) [µM] | MIC [1, 13] [mg/L] | MIC [2] [mg/L] | EC50 (SARS-CoV-2 [3]) [µM] | MIC [4] [mg/L] | MIC [5, 14] [mg/L] | MIC [6, 15] [mg/L] | MIC [7, 16] [mg/L] | MIC ([8]; Enterococcus faecalis 29 212) [mg/L] | MIC (Bacillus subtilis) [mg/L] | EC50 (SARS-CoV-2 [9]) [µM] | antiproliferative activity (in words) (MCF7 cells) | antiproliferative activity (in words) (MDA-MB-231 cells) | antiproliferative activity (in words) (SiHa cells) | antiproliferative activity (in words) (A2780 cells) | spontaneous, homeostatic sebaceous lipogenesis (SZ95 sebocytes [10]) | viability (MTT signal intensity) (SZ95 sebocytes [11]) | effect on the lipogenic effect of arachidonic acid (AA) (SZ95 sebocytes [12]) | also measured
1 | C#CCN1COc2c(C/C=C(\C)CCC=C(C)C)c(O)cc(CCCCC)c2C1 [Compound 18] | ~28 | 64 (≈ 162 µM) | > 256 | > 28 | > 256 | > 256 | > 256 | > 256 | 64 (≈ 162 µM) | > 256 | 15 ± 0.94 |  |  |  |  |  |  |  | 
2 | CCCCCc1c2c(c(C/C=C(\C)CCC=C(C)C)c3c1CN(CCCC)CO3)OCN(CCCC)C2 [Compound 16b] | 7.7 ± 3.2 | 64 (≈ 125 µM) | > 256 |  | > 256 | > 256 | > 256 | > 256 | 64 (≈ 125 µM) | > 256 | > 7.7 | more active than CBG | more active than CBG | more active than CBG | more active than CBG |  |  |  | 
3 | C=C(C)[C@@H]1CCC(C)=C[C@H]1c1c(O)cc(CCCCC)c2c1OCN(CCCC)C2 [Compound 8] | > 100 | 2 (≈ 4.86 µM) | > 256 | 31 ± 1.1 | > 256 | > 256 | > 256 | > 256 | 2 (≈ 4.86 µM) | > 256 | 21 ± 3.7 | more sensitive |  |  |  | rather promote spontaneous, homeostatic sebaceous lipogenesis | cytotoxic effects | mimic this lipostatic effect | promotion of spontaneous sebaceous lipogenesis, significance (SZ95 sebocytes [10]; 10 and 30 μM): statistically significant; inhibition of the proliferation (in words) (MCF7 cells; MCF7, 10 μM): much more potent than the parent CBD
4 | CCCCCc1cc(O)c(C/C=C(\C)CCC=C(C)C)c2c1CN(CCCC)CO2 [Compound 16a] |  |  |  |  |  |  |  |  |  |  |  |  |  |  |  | mimicked the previously reported weak lipogenic effect of CBG | tended to suppress viability | suppress the effect of AA | 
5 | C#CCN1COc2c(c(CCCCC)cc(O)c2[C@@H]2C=C(C)CC[C@H]2C(=C)C)C1 [Compound 11] | 77 ± 2.6 | 128 (≈ 325 µM) | > 256 | 33 ± 1.4 | > 256 | > 256 | > 256 | > 256 | 128 (≈ 325 µM) | > 256 | 17 ± 1.5 | None of the other tested CBD analogs (9, 11, and 12) exhibited substantial antiproliferative activity | None of the other tested CBD analogs (9, 11, and 12) exhibited substantial antiproliferative activity | None of the other tested CBD analogs (9, 11, and 12) exhibited substantial antiproliferative activity | None of the other tested CBD analogs (9, 11, and 12) exhibited substantial antiproliferative activity |  |  |  | 
6 | CCCCCc1c(CN(CC)CC)c(O)c(C/C=C(\C)CCC=C(C)C)c(O)c1CN(CC)CC [Compound 21b] |  |  |  |  |  |  |  |  |  | > 256 |  |  |  |  |  | mimicked the previously reported weak lipogenic effect of CBG | rather increased MTT signal intensity | suppress the effect of AA | MIC ([1]; Enterococcus faecalis, 51299VANB): 64 mg/L (≈ 131 µM); MIC ([2]; Staphylococcus aureus): > 256 mg/L; EC50 (SARS-CoV-2 [3]; [17]): > 100 µM; MIC ([4]; Staphylococcus aureus): > 256 mg/L; MIC ([5]; Staphylococcus epidermidis): > 256 mg/L; MIC ([6]; Staphylococcus epidermidis): > 256 mg/L; MIC ([7]; Enterococcus faecalis, 15376VANA): > 256 mg/L; MIC ([8]; Enterococcus faecalis, 29212): 64 mg/L (≈ 131 µM); EC50 (SARS-CoV-2 [9]; [17]): 12 ± 0.99 µM; IC50 (SARS-CoV-2 [9]; Severe acute respiratory syndrome coronavirus 2, Vero C1008, read-out: IC50 (anti-SARS-CoV-2 activity, Figure 8)): 12 µM; CC50 (in vitro): > 100 µM
